Source: patent publication US11857519B2, “Compounds and methods for the targeted degradation of enhancer of zeste homolog 2 polypeptide” (Arvinas Operations, Inc., priority 2016, dated 2024)

The molecules below were run against T1, EZH2 (Homo sapiens, UniProt Q15910) (assay: Cellular assay of target protein degradation (VCaP cells, ELISA)). Details: 4 hours, protein degradation range at indicated concentration (relative to DMSO control).
T1 construct: Protocol of the Cellular Assay of Target Protein Degradation (VCaP Cells, ELISA); endogenous in cells; host or cells: VCaP cells
T1 sequence (Q15910 whole entry): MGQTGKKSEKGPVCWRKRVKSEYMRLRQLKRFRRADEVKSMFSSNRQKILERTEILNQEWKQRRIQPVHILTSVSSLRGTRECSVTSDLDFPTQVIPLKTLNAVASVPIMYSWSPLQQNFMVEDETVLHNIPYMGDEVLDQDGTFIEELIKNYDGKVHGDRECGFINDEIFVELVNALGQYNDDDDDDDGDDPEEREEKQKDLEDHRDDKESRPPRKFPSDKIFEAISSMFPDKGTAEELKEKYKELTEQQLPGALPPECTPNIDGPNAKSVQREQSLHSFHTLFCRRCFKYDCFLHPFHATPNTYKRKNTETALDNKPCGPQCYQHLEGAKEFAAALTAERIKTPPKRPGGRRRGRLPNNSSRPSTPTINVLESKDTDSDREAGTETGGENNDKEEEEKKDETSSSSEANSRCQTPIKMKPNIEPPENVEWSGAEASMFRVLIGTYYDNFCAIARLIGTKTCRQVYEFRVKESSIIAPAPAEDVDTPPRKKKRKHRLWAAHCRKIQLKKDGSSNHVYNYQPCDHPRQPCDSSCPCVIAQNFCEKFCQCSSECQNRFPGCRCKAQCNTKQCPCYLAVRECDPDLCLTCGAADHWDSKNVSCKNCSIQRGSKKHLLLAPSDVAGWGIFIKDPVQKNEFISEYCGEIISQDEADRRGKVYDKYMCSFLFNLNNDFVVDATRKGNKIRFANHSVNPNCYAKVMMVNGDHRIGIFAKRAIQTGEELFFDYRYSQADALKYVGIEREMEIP
T1 sequence (O75530 whole entry partner): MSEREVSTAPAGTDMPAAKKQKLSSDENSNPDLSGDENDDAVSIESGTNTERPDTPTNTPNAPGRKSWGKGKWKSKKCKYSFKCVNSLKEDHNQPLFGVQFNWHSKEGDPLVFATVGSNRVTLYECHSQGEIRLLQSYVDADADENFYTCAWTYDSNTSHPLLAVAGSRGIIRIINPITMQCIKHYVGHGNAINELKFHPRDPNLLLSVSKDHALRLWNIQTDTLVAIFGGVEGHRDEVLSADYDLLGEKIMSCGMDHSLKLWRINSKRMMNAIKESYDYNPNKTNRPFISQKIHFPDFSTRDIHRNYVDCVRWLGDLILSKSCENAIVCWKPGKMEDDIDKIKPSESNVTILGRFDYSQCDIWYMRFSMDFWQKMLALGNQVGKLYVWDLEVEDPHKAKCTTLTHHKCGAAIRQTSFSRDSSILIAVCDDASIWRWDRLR
T1 sequence (Q15022 whole entry partner): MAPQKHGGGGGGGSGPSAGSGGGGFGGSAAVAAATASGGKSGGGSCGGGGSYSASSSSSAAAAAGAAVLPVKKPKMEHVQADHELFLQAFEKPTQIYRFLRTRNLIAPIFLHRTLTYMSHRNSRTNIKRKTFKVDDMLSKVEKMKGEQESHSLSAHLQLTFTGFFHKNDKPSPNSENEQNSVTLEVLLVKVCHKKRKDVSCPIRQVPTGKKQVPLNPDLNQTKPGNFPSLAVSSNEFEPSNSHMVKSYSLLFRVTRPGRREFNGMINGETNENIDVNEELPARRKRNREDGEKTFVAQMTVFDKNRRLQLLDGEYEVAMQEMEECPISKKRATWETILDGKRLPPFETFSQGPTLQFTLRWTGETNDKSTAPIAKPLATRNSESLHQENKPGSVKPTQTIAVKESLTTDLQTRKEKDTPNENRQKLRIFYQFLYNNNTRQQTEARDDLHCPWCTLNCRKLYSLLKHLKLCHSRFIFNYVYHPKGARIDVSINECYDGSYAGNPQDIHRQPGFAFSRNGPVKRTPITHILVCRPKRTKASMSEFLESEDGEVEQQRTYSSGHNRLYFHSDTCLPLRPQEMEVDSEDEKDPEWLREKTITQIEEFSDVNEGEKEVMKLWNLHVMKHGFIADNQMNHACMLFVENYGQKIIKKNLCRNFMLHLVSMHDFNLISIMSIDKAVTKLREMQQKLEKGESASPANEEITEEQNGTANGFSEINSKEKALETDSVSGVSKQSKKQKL
Format: cell-based
Outline: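 EZH2 level measured by sandwich ELISA (TMB, A450 minus A562 background) in lysates of VCaP cells. Cells had been cultured at least 3 days in 5% CSS RPMI before 4 h compound exposure in 0.1% DMSO.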

Row | SMILES | percent target protein degradation class
1 | CCN(c1cc(-c2ccc(OCCCCOCCCOc3cc(-c4scnc4C)ccc3CNC(=O)[C@@H]3C[C@@H](O)CN3C(=O)[C@H](C(C)C)N3Cc4ccccc4C3=O)cc2)cc(C(=O)NCc2c(C)cc(C)[nH]c2=O)c1C)C1CCOCC1 [Compound 40, (2S,4R)-N-{[2-(3-{4-[4-(3-{[(4,6-dimethyl-2-oxo-1,2-dihydropyridin-3-yl)methyl]carbamoyl}-5-[ethyl(oxan-4-yl)amino]-4-methylphenyl)phenoxy]butoxy}propoxy)-4-(4-methyl-1,3-thiazol-5-yl)phenyl]methyl}-4-hydroxy-1-[(2S)-3-methyl-2-(1-oxo-2,3-dihydro-1H-isoindol-2-yl)butanoyl]pyrrolidine-2-carboxamide] | B (B = degradation between 30% and 60%)
2 | CCN(c1cc(-c2ccc(OCCCOCC(=O)N[C@H](C(=O)N3C[C@H](O)C[C@H]3C(=O)NCc3ccc(-c4scnc4C)cc3)C(C)(C)C)cc2)cc(C(=O)NCc2c(C)cc(C)[nH]c2=O)c1C)C1CCOCC1 [Compound 41, (2S,4R)-1-[(2S)-2-(2-{3-[4-(3-{[(4,6-dimethyl-2-oxo-1,2-dihydropyridin-3-yl)methyl]carbamoyl}-5-[ethyl(oxan-4-yl)amino]-4-methylphenyl)phenoxy]propoxy}acetamido)-3,3-dimethylbutanoyl]-4-hydroxy-N-{[4-(4-methyl-1,3-thiazol-5-yl)phenyl]methyl}pyrrolidine-2-carboxamide] | A (A = degradation more than 60%)
3 | CCN(c1cc(-c2ccc(OCCOCCOCC(=O)N[C@H](C(=O)N3C[C@H](O)C[C@H]3C(=O)N[C@@H](C)c3ccc(-c4scnc4C)cc3)C(C)(C)C)cc2)cc(C(=O)NCc2c(C)cc(C)[nH]c2=O)c1C)C1CCOCC1 [Compound 43, (2S,4R)-1-[(2S)-2-[2-(2-{2-[4-(3-{[(4,6-dimethyl-2-oxo-1,2-dihydropyridin-3-yl)methyl]carbamoyl}-5-[ethyl(oxan-4-yl)amino]-4-methylphenyl)phenoxy]ethoxy}ethoxy)acetamido]-3,3-dimethylbutanoyl]-4-hydroxy-N-[(1S)-1-[4-(4-methyl-1,3-thiazol-5-yl)phenyl]ethyl]pyrrolidine-2-carboxamide] | A (A = degradation more than 60%)
4 | CCN(c1cc(-c2ccc(CCCOCCCCC(=O)N[C@H](C(=O)N3C[C@H](O)C[C@H]3C(=O)NCc3ccc(-c4scnc4C)cc3)C(C)(C)C)cc2)cc(C(=O)NCc2c(C)cc(C)[nH]c2=O)c1C)C1CCOCC1 [Compound 44, (2S,4R)-1-[(2S)-2-(5-{3-[4-(3-{[(4,6-dimethyl-2-oxo-1,2-dihydropyridin-3-yl)methyl]carbamoyl}-5-[ethyl(oxan-4-yl)amino]-4-methylphenyl)phenyl]propoxy}pentanamido)-3,3-dimethylbutanoyl]-4-hydroxy-N-{[4-(4-methyl-1,3-thiazol-5-yl)phenyl]methyl}pyrrolidine-2-carboxamide] | B (B = degradation between 30% and 60%)
5 | CCN(c1cc(-c2ccc(OCCCOCCOCC(=O)N[C@H](C(=O)N3C[C@H](O)C[C@H]3C(=O)NCc3ccc(-c4scnc4C)cc3)C(C)(C)C)cc2)cc(C(=O)NCc2c(C)cc(C)[nH]c2=O)c1C)C1CCOCC1 [Compound 45, (2S,4R)-1-[(2S)-2-[2-(2-{3-[4-(3-{[(4,6-dimethyl-2-oxo-1,2-dihydropyridin-3-yl)methyl]carbamoyl}-5-[ethyl(oxan-4-yl)amino]-4-methylphenyl)phenoxy]propoxy}ethoxy)acetamido]-3,3-dimethylbutanoyl]-4-hydroxy-N-{[4-(4-methyl-1,3-thiazol-5-yl)phenyl]methyl}pyrrolidine-2-carboxamide] | B (B = degradation between 30% and 60%)
6 | CCN(c1cc(-c2ccc(OCCCCCOCC(=O)N[C@H](C(=O)N3C[C@H](O)C[C@H]3C(=O)NCc3ccc(-c4scnc4C)cc3)C(C)(C)C)cc2)cc(C(=O)NCc2c(C)cc(C)[nH]c2=O)c1C)C1CCOCC1 [Compound 46, (2S,4R)-1-[(2S)-2-[2-({5-[4-(3-{[(4,6-dimethyl-2-oxo-1,2-dihydropyridin-3-yl)methyl]carbamoyl}-5-[ethyl(oxan-4-yl)amino]-4-methylphenyl)phenoxy]pentyl}oxy)acetamido]-3,3-dimethylbutanoyl]-4-hydroxy-N-{[4-(4-methyl-1,3-thiazol-5-yl)phenyl]methyl}pyrrolidine-2-carboxamide] | A (A = degradation more than 60%)
7 | CCN(c1cc(-c2ccc(CCCOCCOCC(=O)N[C@H](C(=O)N3C[C@H](O)C[C@H]3C(=O)NCc3ccc(-c4scnc4C)cc3)C(C)(C)C)cc2)cc(C(=O)NCc2c(C)cc(C)[nH]c2=O)c1C)C1CCOCC1 [Compound 47, (2S,4R)-1-[(2S)-2-[2-(2-{3-[4-(3-{[(4,6-dimethyl-2-oxo-1,2-dihydropyridin-3-yl)methyl]carbamoyl}-5-[ethyl(oxan-4-yl)amino]-4-methylphenyl)phenyl]propoxy}ethoxy)acetamido]-3,3-dimethylbutanoyl]-4-hydroxy-N-{[4-(4-methyl-1,3-thiazol-5-yl)phenyl]methyl}pyrrolidine-2-carboxamide] | B (B = degradation between 30% and 60%)
8 | CCN(c1cc(-c2ccc(OCCCOCCCOCC(=O)N[C@H](C(=O)N3C[C@H](O)C[C@H]3C(=O)NCc3ccc(-c4scnc4C)cc3)C(C)(C)C)cc2)cc(C(=O)NCc2c(C)cc(C)[nH]c2=O)c1C)C1CCOCC1 [Compound 48, (2S,4R)-1-[(2S)-2-[2-(3-{3-[4-(3-{[(4,6-dimethyl-2-oxo-1,2-dihydropyridin-3-yl)methyl]carbamoyl}-5-[ethyl(oxan-4-yl)amino]-4-methylphenyl)phenoxy]propoxy}propoxy)acetamido]-3,3-dimethylbutanoyl]-4-hydroxy-N-{[4-(4-methyl-1,3-thiazol-5-yl)phenyl]methyl}pyrrolidine-2-carboxamide] | A (A = degradation more than 60%)
9 | CCN(c1cc(-c2ccc(OCCOCCCCCOc3cc(-c4scnc4C)ccc3CNC(=O)[C@@H]3C[C@@H](O)CN3C(=O)[C@H](C(C)C)N3Cc4ccccc4C3=O)cc2)cc(C(=O)NCc2c(C)cc(C)[nH]c2=O)c1C)C1CCOCC1 [Compound 49, (2S,4R)-N-({2-[(5-{2-[4-(3-{[(4,6-dimethyl-2-oxo-1,2-dihydropyridin-3-yl)methyl]carbamoyl}-5-[ethyl(oxan-4-yl)amino]-4-methylphenyl)phenoxy]ethoxy}pentyl)oxy]-4-(4-methyl-1,3-thiazol-5-yl)phenyl}methyl)-4-hydroxy-1-[(2S)-3-methyl-2-(1-oxo-2,3-dihydro-1H-isoindol-2-yl)butanoyl]pyrrolidine-2-carboxamide] | B (B = degradation between 30% and 60%)
10 | CCN(c1cc(-c2ccc(OCCCCCOCCOc3cc(-c4scnc4C)ccc3CNC(=O)[C@@H]3C[C@@H](O)CN3C(=O)[C@H](C(C)C)N3Cc4ccccc4C3=O)cc2)cc(C(=O)NCc2c(C)cc(C)[nH]c2=O)c1C)C1CCOCC1 [Compound 50, (2S,4R)-N-({2-[2-({5-[4-(3-{[(4,6-dimethyl-2-oxo-1,2-dihydropyridin-3-yl)methyl]carbamoyl}-5-[ethyl(oxan-4-yl)amino]-4-methylphenyl)phenoxy]pentyl}oxy)ethoxy]-4-(4-methyl-1,3-thiazol-5-yl)phenyl}methyl)-4-hydroxy-1-[(2S)-3-methyl-2-(1-oxo-2,3-dihydro-1H-isoindol-2-yl)butanoyl]pyrrolidine-2-carboxamide] | A (A = degradation more than 60%)
11 | CCN(c1cc(-c2ccc(OCCCOCCCCOc3cc(-c4scnc4C)ccc3CNC(=O)[C@@H]3C[C@@H](O)CN3C(=O)[C@H](C(C)C)N3Cc4ccccc4C3=O)cc2)cc(C(=O)NCc2c(C)cc(C)[nH]c2=O)c1C)C1CCOCC1 [Compound 51, (2S,4R)-N-{[2-(4-{3-[4-(3-{[(4,6-dimethyl-2-oxo-1,2-dihydropyridin-3-yl)methyl]carbamoyl}-5-[ethyl(oxan-4-yl)amino]-4-methylphenyl)phenoxy]propoxy}butoxy)-4-(4-methyl-1,3-thiazol-5-yl)phenyl]methyl}-4-hydroxy-1-[(2S)-3-methyl-2-(1-oxo-2,3-dihydro-1H-isoindol-2-yl)butanoyl]pyrrolidine-2-carboxamide] | B (B = degradation between 30% and 60%)
12 | CCN(c1cc(-c2ccc(OCCCCOCCOc3cc(-c4scnc4C)ccc3CNC(=O)[C@@H]3C[C@@H](O)CN3C(=O)[C@H](C(C)C)N3Cc4ccccc4C3=O)cc2)cc(C(=O)NCc2c(C)cc(C)[nH]c2=O)c1C)C1CCOCC1 [Compound 53, (2S,4R)-N-{[2-(2-{4-[4-(3-{[(4,6-dimethyl-2-oxo-1,2-dihydropyridin-3-yl)methyl]carbamoyl}-5-[ethyl(oxan-4-yl)amino]-4-methylphenyl)phenoxy]butoxy}ethoxy)-4-(4-methyl-1,3-thiazol-5-yl)phenyl]methyl}-4-hydroxy-1-[(2S)-3-methyl-2-(1-oxo-2,3-dihydro-1H-isoindol-2-yl)butanoyl]pyrrolidine-2-carboxamide] | B (B = degradation between 30% and 60%)
13 | CCN(c1cc(-c2ccc(OCCCOCCOCCOc3cc(-c4scnc4C)ccc3CNC(=O)[C@@H]3C[C@@H](O)CN3C(=O)[C@H](C(C)C)N3Cc4ccccc4C3=O)cc2)cc(C(=O)NCc2c(C)cc(C)[nH]c2=O)c1C)C1CCOCC1 [Compound 54, (2S,4R)-N-({2-[2-(2-{3-[4-(3-{[(4,6-dimethyl-2-oxo-1,2-dihydropyridin-3-yl)methyl]carbamoyl}-5-[ethyl(oxan-4-yl)amino]-4-methylphenyl)phenoxy]propoxy}ethoxy)ethoxy]-4-(4-methyl-1,3-thiazol-5-yl)phenyl}methyl)-4-hydroxy-1-[(2S)-3-methyl-2-(1-oxo-2,3-dihydro-1H-isoindol-2-yl)butanoyl]pyrrolidine-2-carboxamide] | B (B = degradation between 30% and 60%)
